Measured values as given in the supplement of paper PMC11451515.

System: SEM cells
Assay: cell viability relative to DMSO control; higher = less cytotoxic
Conditions: 48 h
In short: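 Viability, reported as a per-plate percentage of DMSO wells with cell-free wells as background, came from CellTiter-Glo One luminescence. Reading took place after 48 h at 37°C. Before that, NOMO1 or SEM (500 cells/well) or P12-Ichikawa (1000 cells/well) leukemia cells, adapted for at least four passages in each medium, were seeded in 1536-well plates (5 μl) and pin-dosed with library compounds in DMSO, 47 μM to 0.79 nM over 11 threefold points.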

[1] = HPLM + 10% dialyzed FBS, 0.000781 µM
[2] = HPLM + 10% dialyzed FBS, 0.00234 µM
[3] = HPLM + 10% dialyzed FBS, 0.00702 µM
[4] = HPLM + 10% dialyzed FBS, 0.0211 µM
[5] = HPLM + 10% dialyzed FBS, 0.0632 µM
[6] = HPLM + 10% dialyzed FBS, 0.19 µM
[7] = HPLM + 10% dialyzed FBS, 0.569 µM
[8] = HPLM + 10% dialyzed FBS, 1.71 µM
[9] = HPLM + 10% dialyzed FBS, 5.12 µM
[10] = HPLM + 10% dialyzed FBS, 15.4 µM
[11] = HPLM + 10% dialyzed FBS, 46.1 µM
[12] = RPMI 5 mM glucose + 10% FBS, 0.000781 µM
[13] = RPMI 5 mM glucose + 10% FBS, 0.00234 µM
[14] = RPMI 5 mM glucose + 10% FBS, 0.00702 µM
[15] = RPMI 5 mM glucose + 10% FBS, 0.0211 µM
[16] = RPMI 5 mM glucose + 10% FBS, 0.0632 µM
[17] = RPMI 5 mM glucose + 10% FBS, 0.19 µM
[18] = RPMI 5 mM glucose + 10% FBS, 0.569 µM
[19] = RPMI 5 mM glucose + 10% FBS, 1.71 µM
[20] = RPMI 5 mM glucose + 10% FBS, 5.12 µM
[21] = RPMI 5 mM glucose + 10% FBS, 15.4 µM
[22] = RPMI 5 mM glucose + 10% FBS, 46.1 µM
[23] = RPMI 5 mM glucose + 10% dialyzed FBS, 0.000781 µM
[24] = RPMI 5 mM glucose + 10% dialyzed FBS, 0.00234 µM
[25] = RPMI 5 mM glucose + 10% dialyzed FBS, 0.00702 µM
[26] = RPMI 5 mM glucose + 10% dialyzed FBS, 0.0211 µM
[27] = RPMI 5 mM glucose + 10% dialyzed FBS, 0.0632 µM
[28] = RPMI 5 mM glucose + 10% dialyzed FBS, 0.19 µM
[29] = RPMI 5 mM glucose + 10% dialyzed FBS, 0.569 µM
[30] = RPMI 5 mM glucose + 10% dialyzed FBS, 1.71 µM
[31] = RPMI 5 mM glucose + 10% dialyzed FBS, 5.12 µM
[32] = RPMI 5 mM glucose + 10% dialyzed FBS, 15.4 µM
[33] = RPMI 5 mM glucose + 10% dialyzed FBS, 46.1 µM

| Structure (SMILES) | cell viability [1] | cell viability [2] | cell viability [3] | cell viability [4] | cell viability [5] | cell viability [6] | cell viability [7] | cell viability [8] | cell viability [9] | cell viability [10] | cell viability [11] | cell viability [12] | cell viability [13] | cell viability [14] | cell viability [15] | cell viability [16] | cell viability [17] | cell viability [18] | cell viability [19] | cell viability [20] | cell viability [21] | cell viability [22] | cell viability [23] | cell viability [24] | cell viability [25] | cell viability [26] | cell viability [27] | cell viability [28] | cell viability [29] | cell viability [30] | cell viability [31] | cell viability [32] | cell viability [33] |
| --- | --- | --- | --- | --- | --- | --- | --- | --- | --- | --- | --- | --- | --- | --- | --- | --- | --- | --- | --- | --- | --- | --- | --- | --- | --- | --- | --- | --- | --- | --- | --- | --- | --- |
| CC[C@H](CC[C@@H](C)[C@H]1CC[C@H]2[C@@H]3C\C=C/4C[C@@H](O)CC[C@]4(C)[C@H]3CC[C@]12C)C(C)C | 119% | 130% | 123% | 139% | 129% | 128% | 114% | 116% | 116% | 122% | 95.8% | 117% | 114% | 126% | 119% | 131% | 116% | 124% | 110% | 115% | 114% | 92.3% | 124% | 144% | 122% | 115% | 147% | 126% | 125% | 129% | 138% | 121% | 94.6% |
| Cn1c(=O)c2c(ncn2C)n(C)c1=O.O=C(O)CC(O)(CC(=O)O)C(=O)O | 124% | 117% | 110% | 111% | 112% | 128% | 118% | 114% | 122% | 121% | 106% | 117% | 107% | 112% | 107% | 117% | 106% | 115% | 96.1% | 103% | 110% | 89.7% | 113% | 114% | 120% | 123% | 112% | 124% | 115% | 114% | 117% | 124% | 112% |
| COC[C@H]1OC(=O)C2=COC3=C2[C@@]1(C)\C4=C(C5CCC(=O)[C@@]5(C)C[C@H]4OC(C)=O)/C3=O (some centres undefined) | 72.1% | 84.9% | 96.8% | 17.5% | 99.5% | 93% | 93.6% | 95.6% | 85.6% | 82% | 95.3% | 90.8% | 107% | 101% | 14.7% | 109% | 102% | 107% | 111% | 81.5% | 92.2% | 80.3% | 89.2% | 84.6% | 88.9% | 16.4% | 88.6% | 85.1% | 94.8% | 82.9% | 77.1% | 63.5% | 50.9% |
| CN(CC#C)C/C1=C/C2=CC=CC=C2OC3=CC=CC=C13 | 90.9% | 90.7% | 79.7% | 80.1% | 76.8% | 40.6% | 32.1% | 91.6% | 30.1% | 49.2% | 42% | 100% | 109% | 113% | 105% | 83.3% | 49.9% | 36.8% | 117% | 41.4% | 61.3% | 50.3% | 80.4% | 85.3% | 81.2% | 69.2% | 60.6% | 32.8% | 29.1% | 103% | 29.2% | 47.3% | 37.7% |
| COc1ccc(-c2cc3nccn3c(Nc3ncccc3C(N)=O)n2)cc1OC | 81.8% | 92.1% | 90.4% | 86.8% | 85.7% | 91.4% | 85.3% | 61.6% | 74.4% | 65.9% | 58.8% | 82.7% | 105% | 103% | 100% | 99% | 87.2% | 89.2% | 63.1% | 81% | 60.7% | 58.1% | 85.7% | 91.6% | 86.6% | 101% | 91% | 76.2% | 68.5% | 49.9% | 59.3% | 49.1% | 49.5% |
| COc1cc2c(cc1OC)C1CC(=O)C(CC(C)C)CN1CC2 (centres undefined) | 84.5% | 116% | 99.6% | 107% | 98.4% | 100% | 118% | 110% | 112% | 103% | 96.5% | 116% | 114% | 110% | 118% | 103% | 110% | 114% | 118% | 118% | 116% | 109% | 120% | 140% | 113% | 117% | 97.1% | 129% | 111% | 129% | 124% | 119% | 103% |
| COc1c(C)cnc(Cn2cnc3c(Cl)nc(N)nc32)c1C | 94.1% | 106% | 103% | 112% | 102% | 76.9% | 52.8% | 28.3% | 15.9% | 22.3% | 17.6% | 108% | 125% | 99.6% | 115% | 100% | 77.3% | 50% | 25.5% | 16.1% | 22.9% | 17.3% | 115% | 104% | 106% | 116% | 124% | 78.6% | 52.9% | 33.1% | 15.8% | 25% | 22.1% |
| c1cncc(CN2CCC(n3ncc4c(N5CCOCC5)nc(-c5ccc6[nH]ccc6c5)nc43)CC2)c1 | 93.8% | 88.8% | 98.3% | 90% | 101% | 81% | 66.6% | 69.2% | 73.4% | 58.9% | 33.1% | 123% | 117% | 111% | 103% | 105% | 95.4% | 68.2% | 93% | 80.3% | 37.1% | 11.6% | 87.1% | 88.4% | 94.7% | 87.2% | 87.3% | 96.4% | 61.9% | 76.2% | 66.5% | 32.6% | 8.23% |
| C=CC(=O)Nc1cccc(Oc2nc(Nc3ccc(N4CCN(C)CC4)cc3)ncc2Cl)c1 | 94.3% | 112% | 109% | 116% | 128% | 111% | 104% | 83% | 22.1% | 21.6% | 22.2% |  |  |  |  |  |  |  |  |  |  |  | 108% | 107% | 125% | 124% | 128% | 111% | 103% | 71.8% | 21.1% | 15% | 10.4% |
| CC1=C(/C=C/C(C)=C/C=C/C(C)=C/C=C/C=C(C)/C=C/C=C(C)/C=C/C2=C(C)CCCC2(C)C)C(C)(C)CCC1 | 96.8% | 101% | 106% | 113% | 102% | 108% | 94.3% | 110% | 115% | 95.4% | 98.1% | 93.1% | 115% | 105% | 98.3% | 106% | 108% | 94.2% | 118% | 119% | 104% | 99.4% | 101% | 100% | 114% | 106% | 109% | 105% | 92.8% | 125% | 103% | 119% | 85.5% |
| CN(c1ncccc1CNc1nc(Nc2ccc3c(c2)CC(=O)N3)ncc1C(F)(F)F)[S+](C)(=O)[O-] |  |  |  |  |  |  |  |  |  |  |  | 120% | 122% | 140% | 129% | 129% | 92.7% | 99% | 91.3% | 13% | 18.9% | 4.29% | 112% | 125% | 122% | 119% | 140% | 119% | 111% | 17.1% | 11.8% | 11.6% | 3.18% |
| CCCCCOC(=O)NC\1=N\C(=O)N(\C=C1F)[C@@H]2O[C@H](C)[C@@H](O)[C@H]2O | 94% | 111% | 116% | 125% | 109% | 112% | 120% | 114% | 106% | 101% | 100% | 104% | 89.8% | 95.7% | 109% | 107% | 88.7% | 98.1% | 98.1% | 98.4% | 94.4% | 85.8% | 96.6% | 92.1% | 105% | 95.9% | 106% | 109% | 95.6% | 108% | 96.8% | 93.7% | 86.2% |
| CC1(C)CC(=O)c2c(C(F)(F)F)nn(-c3ccc(C(N)=O)c(NC4CCC(O)CC4)c3)c2C1 (centres undefined) | 93.6% | 84.7% | 88.6% | 98% | 93.5% | 36.8% | 20.9% | 18.4% | 19.2% | 16.9% | 77.6% | 105% | 97.5% | 84.4% | 84.2% | 111% | 37.1% | 15.7% | 19.4% | 16.1% | 17.4% | 99.9% | 83.7% | 102% | 66.3% | 63.5% | 76.6% | 34.4% | 12.8% | 20.6% | 17.8% | 18.1% | 84.3% |
| COc1nccc(-c2c(-c3ccc(F)cc3)ncn2C2CCNCC2)n1 | 98.2% | 114% | 120% | 107% | 120% | 114% | 113% | 110% | 102% | 98.7% | 81.7% |  |  |  |  |  |  |  |  |  |  |  | 69.4% | 117% | 144% | 113% | 116% | 114% | 104% | 126% | 110% | 95.8% | 79.5% |
